Activity calls are given as the source filed them. No rule for the calls is given here.
target: Serine/threonine-protein kinase mTOR (Homo sapiens) (UniProt P42345); test: mTOR FRB domain ligand binding – biophysical, NMR (AID 1648); settings: NMR binding to FRB domain, chemical shift
Sequence (P42345 2015-2114): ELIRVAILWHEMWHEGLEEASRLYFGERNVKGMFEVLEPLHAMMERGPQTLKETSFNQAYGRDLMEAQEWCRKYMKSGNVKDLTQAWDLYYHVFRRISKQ

Compound	Kd
O=c1ccn([C@@H]2O[C@H](COP(=O)(O)OP(=O)(O)OP(=O)(O)O)[C@@H](O)[C@H]2O)c(=O)[nH]1	> 4 mM (inactive)
O=C(Oc1ccc(-c2nnco2)cc1)N1CCOCC1	> 4 mM (inactive)
CC(=O)Nc1ccc(NC(=O)c2ccnn2C)cc1	> 4 mM (inactive)
Nc1nc2ccccc2n1CCN1CCCC1	> 4 mM (inactive)
CCc1nnsc1C(=O)Nc1nccs1	> 4 mM (inactive)
Cc1nnc(SCC(=O)N2CCCCC2)s1	> 4 mM (inactive)
Nc1ccccc1N1CCOCC1	> 4 mM (inactive)
N#Cc1sc2nc3c(c(-c4cccnc4)c2c1N)CCC3	> 4 mM (inactive)
COc1ccc2c(c1)[nH]c1c(C)nccc12	> 4 mM (inactive)
O=c1c(-c2ccco2)[n+]([O-])c2ccccc2n1O	> 4 mM (inactive)
O=C(NC1CSCC1O)c1ccccc1 (stereo unspecified)	> 4 mM (inactive)
CCc1ccc(C(=O)N2CCCC2)s1	> 4 mM (inactive)
CC12CN(CC#N)CC(C)(CN(CC#N)C1)C2=O	> 4 mM (inactive)
O=c1[nH]nnc2sc3c(c12)CCCC3	> 4 mM (inactive)
Cc1nc(NC(=O)c2cccnc2)ccc1Br	> 4 mM (inactive)
O=[n+]1c2c(n([O-])c3ccccc31)CCCC2	> 4 mM (inactive)
COc1nc(N2CCOCC2)nc(N)c1[N+](=O)[O-]	> 4 mM (inactive)
O=C(O)C1COc2ccccc2O1 (stereo unspecified)	> 4 mM (inactive)
Cn1nnc2cc(C(=O)NCc3ccco3)ccc21	> 4 mM (inactive)

Compound	Kd
CNC(=S)Nc1cccc(C(=O)O)c1	> 4 mM (inactive)
OCC12COC3c4ccccc4C(OC1)N32 (stereo unspecified)	> 4 mM (inactive)
OCCCc1nc2ccc(C(F)(F)F)cc2[nH]1	> 4 mM (inactive)
Nc1ncnc2c1ncn2CCN1CCOCC1	> 4 mM (inactive)
OC[C@H]1O[C@@H](O[C@H]2[C@H](O)[C@@H](O)[C@@H](O)O[C@@H]2CO)[C@H](O)[C@@H](O)[C@@H]1O	> 4 mM (inactive)
CCCc1ncc(C(O)c2cccc3ccccc23)n1C (stereo unspecified)	> 4 mM (inactive)
O=C(c1ccc(F)cc1)N1CCN(c2ncccn2)CC1	> 4 mM (inactive)
COC(=O)c1oc2ccc(Cl)cc2c1NC(C)=O	> 4 mM (inactive)
COc1cc2c(cc1O)[C@@H](Cc1ccc(O)cc1)[N+](C)(C)CC2	> 4 mM (inactive)
Cc1onc(-c2ccc(F)cc2)c1C(=O)O	> 4 mM (inactive)
COC(=O)c1ccc(C(=S)N2CCOCC2)cc1	> 4 mM (inactive)
O=C(O)C1=C[C@@H](O)[C@@H](O)[C@H](O)C1	> 4 mM (inactive)
Cc1ccc2cc(N)ccc2n1	> 4 mM (inactive)
O=C(Nc1ccc(Cl)cn1)c1cnn2cccnc12	> 4 mM (inactive)
CN1C(=O)/C(=C/c2ccccc2O)NC1=S	> 4 mM (inactive)
NC(=O)CN1CCC(c2nc3ccccc3[nH]2)CC1	> 4 mM (inactive)
Cc1c(C(=O)Nc2ccccc2)sc(N)c1C(N)=O	> 4 mM (inactive)
C[C@@H]1OC(O[C@H]2[C@H](OC(=O)[C@]34CCC(C)(C)CC3C3=CCC5[C@@]6(C)CC[C@H](OC7O[C@@H](C)[C@H](O[C@@H]8OC[C@@H](O)[C@H](O)[C@H]8O)[C@@H](O)[C@H]7O)C(C)(C)C6CC[C@@]5(C)[C@]3(C)CC4O)OC[C@H](O)[C@H]2O)[C@H](O)[C@H](O)[C@H]1O[C@@H]1O[C@H](CO)[C@@H](O)[C@H](O)[C@H]1O (stereo partly specified)	> 4 mM (inactive)
[O-][n+]1onc2c1CCc1c-2nn(-c2ccccc2)[n+]1[O-]	> 4 mM (inactive)

Compound	Kd
O=C(O)c1ccccc1N1CCOCC1	> 4 mM (inactive)
Cn1nc(-c2cccs2)cc1N	> 4 mM (inactive)
NC(=O)C1CCN(CC2CC=CCC2)CC1 (stereo unspecified)	> 4 mM (inactive)
S=c1oc(-c2ccncc2)nn1CCc1ccncc1	> 4 mM (inactive)
CN1C(=O)N(C)C2NC(=O)NC21 (stereo unspecified)	> 4 mM (inactive)
Cc1nc(-c2ccccc2)ncc1CO	> 4 mM (inactive)
Nc1nc(=S)n2c(n1)oc1ccccc12	> 4 mM (inactive)
CC(=O)c1cccc(NS(=O)(=O)N(C)C)c1	> 4 mM (inactive)
CN1C(CC(=O)c2ccccc2)CCCC1CC(O)c1ccccc1 (stereo unspecified)	> 4 mM (inactive)
COC(=O)c1ccc2snnc2c1	> 4 mM (inactive)
O=C(O)CC12CC3CC(CC(O)(C3)C1)C2	> 4 mM (inactive)
Cc1cc(=O)n2nc(-c3ccccc3)sc2n1	> 4 mM (inactive)
Cc1nnsc1C(=O)Nc1ccccn1	> 4 mM (inactive)
Cc1nc2ccccc2c2c1C(=O)N(C)C2=O	> 4 mM (inactive)
O=C(NCC1CCNCC1)c1ccccn1	> 4 mM (inactive)
Nc1nnc(COc2cccc(C(F)(F)F)c2)s1	> 4 mM (inactive)
NC(=O)c1ccsc1NC(=O)c1ccco1	> 4 mM (inactive)
O=S(=O)(Cc1ccc(Cl)cc1)N1CCCC1	> 4 mM (inactive)
